# Data published in ChEMBL document CHEMBL1201862, “PubChem BioAssay data set” (2004).
#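 Five concentrations, 48 hours, 96-well plates. GI50 is the concentration that inhibits growth by half.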 Active and inactive are the calls of the source. Cut-off read from the data, not from the text of the source: active = GI50 up to about 1.1 µM and inactive = higher.
# How the values were obtained:
# Test in all cases: growth of human tumour cells (NCI), 48 h
# [1] = test system: SN12C
# [2] = test system: KM-20L2
# [3] = test system: SK-MEL-2
# [4] = test system: SF-268
# [5] = test system: SK-MEL-28
# [6] = test system: SR
# [7] = test system: SW-620
# [8] = test system: HCT-15
# [9] = test system: CAKI-1
# [10] = test system: 786-0
# [11] = test system: SNB-19
# [12] = test system: NCI-H226
# [13] = test system: SK-MEL-5
# [14] = test system: A498
# [15] = test system: UO-31
# [16] = test system: HL-60
# [17] = test system: A549
# [18] = test system: IGROV-1
SMILES,GI50 [1],GI50 [2],GI50 [3],GI50 [4],GI50 [5],GI50 [6],GI50 [7],GI50 [8],GI50 [9],GI50 [10],GI50 [11],GI50 [12],GI50 [13],GI50 [14],GI50 [15],GI50 [16],GI50 [17],GI50 [18]
Cc1c[nH]c2c1C13CC1CN(C(=O)c1cc4cc(NC(=O)c5cc6ccccc6o5)ccc4[nH]1)C3=CC2=O (stereo not given),< 0.001 µM (active),< 0.001 µM (active),< 0.001 µM (active),< 0.001 µM (active),< 0.001 µM (active),< 0.001 µM (active),< 0.001 µM (active),< 0.001 µM,< 0.001 µM (active),< 0.001 µM (active),< 0.001 µM (active),< 0.001 µM (active),< 0.001 µM (active),< 0.001 µM (active),–,–,–,–
COc1ccc(/C(=C/n2ccnc2)C(=O)c2ccc(OC)c(OC)c2)cc1,> 100 µM (inactive),> 100 µM (inactive),> 100 µM (inactive),> 100 µM (inactive),> 100 µM (inactive),> 100 µM (inactive),> 100 µM (inactive),> 100 µM,> 100 µM (inactive),> 100 µM (inactive),> 100 µM (inactive),> 100 µM (inactive),> 100 µM (inactive),> 100 µM (inactive),> 100 µM (inactive),> 100 µM (inactive),> 100 µM (inactive),–
CCOc1ccccc1/N=N/c1c(-c2ccccc2)nn(C(=O)CC(=O)Nc2cccc(Cl)c2)c1-c1ccccc1,40.4 µM (inactive),68.2 µM (inactive),> 100 µM (inactive),29.2 µM (inactive),31.9 µM (inactive),61 µM (inactive),> 100 µM (inactive),–,43.1 µM (inactive),89.1 µM (inactive),68.9 µM (inactive),64.1 µM (inactive),52.2 µM (inactive),–,19.2 µM (inactive),58.6 µM (inactive),54 µM (inactive),68.9 µM (inactive)
CCOC(=O)C1=C(Nc2ccc(Cl)c(Cl)c2)OC/C1=N\NS(=O)(=O)c1ccc(C)cc1,57.8 µM (inactive),31.4 µM (inactive),29.6 µM (inactive),45.8 µM (inactive),64.7 µM (inactive),–,> 100 µM (inactive),–,44.2 µM (inactive),> 100 µM (inactive),59 µM (inactive),27.3 µM (inactive),42.9 µM (inactive),44.4 µM (inactive),25.1 µM (inactive),27.9 µM (inactive),52.2 µM (inactive),68.9 µM (inactive)
O=C1c2cccc([N+](=O)[O-])c2C(=O)c2nccnc21,1.66 µM (inactive),2.7 µM (inactive),1.45 µM (inactive),–,1.63 µM (inactive),2.05 µM (inactive),1.73 µM (inactive),1.47 µM,4.86 µM (inactive),1.78 µM (inactive),1.69 µM (inactive),1.94 µM (inactive),0.25 µM (active),5.32 µM (inactive),1.27 µM (inactive),2.15 µM (inactive),1.66 µM (inactive),–
Cc1ccc(-n2cc(/C(N)=N/O)c3ccccc3c2=O)cc1,> 100 µM (inactive),> 100 µM (inactive),–,> 100 µM (inactive),> 100 µM (inactive),> 100 µM (inactive),> 100 µM (inactive),> 100 µM,–,> 100 µM (inactive),> 100 µM (inactive),> 100 µM (inactive),> 100 µM (inactive),–,> 100 µM (inactive),> 100 µM (inactive),> 100 µM (inactive),> 100 µM (inactive)
Clc1ccc2c(Cl)ncnc2c1I,> 100 µM (inactive),> 100 µM (inactive),> 100 µM (inactive),> 100 µM (inactive),> 100 µM (inactive),31.2 µM (inactive),80 µM (inactive),> 100 µM,64 µM (inactive),> 100 µM (inactive),> 100 µM (inactive),32.4 µM (inactive),> 100 µM (inactive),–,67.8 µM (inactive),20.1 µM (inactive),> 100 µM (inactive),52.5 µM (inactive)
CCCN(CCC)c1c([N+](=O)[O-])cc(S(N)(=O)=O)cc1[N+](=O)[O-] [ORYZALIN],17.4 µM (inactive),19.3 µM (inactive),16.4 µM (inactive),18.3 µM (inactive),20.7 µM (inactive),23.5 µM (inactive),20.7 µM (inactive),17.5 µM,13.6 µM (inactive),16.7 µM (inactive),19.7 µM (inactive),23.7 µM (inactive),19.3 µM (inactive),–,18.6 µM (inactive),–,16.4 µM (inactive),7.29 µM (inactive)
CCCCCCCCCCCCCCCC/C(C(=O)OC)=C(/O)C(=O)OCC,> 100 µM (inactive),> 100 µM (inactive),68.9 µM (inactive),> 100 µM (inactive),> 100 µM (inactive),95.3 µM (inactive),> 100 µM (inactive),> 100 µM,> 100 µM (inactive),> 100 µM (inactive),> 100 µM (inactive),> 100 µM (inactive),> 100 µM (inactive),> 100 µM (inactive),94 µM (inactive),> 100 µM (inactive),> 100 µM (inactive),> 100 µM (inactive)
